These results are taken from article PMC11755562, “Peptide Inhibitor Assay for Allocating Functionally Important Accessible Sites Throughout a Protein Chain: Restriction Endonuclease EcoRI as a Model Protein System” (BioTech, 2024).

Assay [1] concerns the target T1, EcoRI (Escherichia coli, UniProt P00642).
T1 construct: The first M is removed after translation in this protein; purchased New England Biolabs
Description: Nonspecific nuclease activity of EcoRI reaction mixture with peptide (plasmid DNA degradation). It is filed as biochemical. Particulars: EcoRI plus peptide 1:500, 3 h, n = 3. The method, then: A recombinant plasmid, pCRII-TOPO (Invitrogen, Waltham, MA, USA), containing a PCR fragment of the full-length cDNA (978 bp) of the mouse odorant receptor OR23 [82, 83, 84, 85, 86] at the EcoRI cloning site (GAATTC) was used as a DNA substrate for EcoRI. […] This pCRII-TOPO-OR23 plasmid was prepared from TOP10F’ Escherichia coli (Invitrogen) using ATP Plasmid Mini Kit (ATP Biotech, Taipei, ROC). The plasmid solution was prepared at 40 ng/μL by adding autoclaved DNase-free RNase-free deionized H2O (Nippon Gene, Tokyo, Japan). The DNA concentrations were measured with a Qubit fluorometer (Invitrogen).
(§1) All master solutions and samples were prepared on ice. A single reaction tube contained the following common ingredients: autoclaved DNase-free RNase-free deionized H2O (12.5 μL) (Nippon Gene), 10× NE Buffer Mg^2+-free (2.0 μL), pCRII-TOPO-OR23 plasmid DNA (2.0 μL of 40 ng/μL solution), MgCl2 (1.5 μL of 0.20 mM solution), and EcoRI (1.0 μL). A master solution containing these ingredients without DMSO or a peptide was first prepared for the number of sample tubes. The master solution was aliquoted into 1.5 mL spin tubes (19.0 μL per tube). Then, 1.0 μL of DMSO or a peptide sample was added, and the mixture was incubated at 37 °C. A negative control with DMSO but without a peptide (“no peptide” control) was run in every assay. When the digestion efficiency was compared, another negative control with autoclaved DNase-free RNase-free H2O without EcoRI was prepared. After the reaction, the samples were quickly cooled on ice for ten minutes and then stored at −80 °C until agarose gel electrophoresis. The above protocol was conducted for all peptides (including BP19.5, BP19.5N, and BP19.5C) used in the present study unless otherwise noted.
This reaction mixture containing EcoRI and BP19.5 appeared to degrade the plasmid DNA entirely. […] The DNA concentration at 3 h was 3.297 ± 0.006 ng/μL without any peptide in the reaction mixture and 0.332 ± 0.003 ng/μL with BP19.5, indicating a statistically significant difference (n = 3; unpaired bi-sided Student’s t-test; p = 1.6 × 10^−11). […] Therefore, BP19.5 and its derivatives are likely to cause EcoRI to become a nonspecific nuclease. In other words, BP19.5 was likely a specificity/activity modifier of EcoRI instead of an inhibitor.

Assay [2] addresses T1, EcoRI. Put plainly: Peptide inhibitor assay (PIA): EcoRI digestion of pCRII-TOPO-OR23 plasmid, fluorescence intensity of the excised OR23 band on agarose gel. Format: biochemical. Particulars: 3 h; for level of inhibitory effect on EcoRI (in words): EcoRI:peptide 1:500, relative fluorescence intensity, n = 3. The method, then:
Peptide synthesis was performed by GenScript Japan (Tokyo, Japan). All peptides were confirmed to be more than 75% pure via high-performance liquid chromatography (HPLC) and to have theoretical molecular weights via mass spectrometry (MS). The peptides were dissolved in DMSO (dimethyl sulfoxide) and were prepared at 5.59 × 10^−9 mol/μL (5.59 mM). When 1.0 μL of this peptide mixture was mixed in a tube for the inhibition of EcoRI catalytic activity, the molar ratio of EcoRI to peptide was 1:500. This concentration in molar equivalence was used throughout this study unless otherwise noted.
Purified and concentrated EcoRI (20,000 U/mL, approximately 338 μg/mL, 1.12 × 10^−[…]) was obtained from New England Biolabs (Ipswich, MA, USA). To quantify and visualize the inhibitory effects of the peptides, the enzymatic reaction conditions were set so that at least three hours of incubation were required to completely digest the substrate plasmid DNA with EcoRI. To do so, we used a low Mg^2+ concentration (0.015 mM) in the reaction mixture in contrast to the optimum concentration of Mg^2+ for EcoRI (10 mM).
as §1
To quantify EcoRI activity after incubation of a reaction mixture, digested pCRII-TOPO-OR23 plasmid DNA was examined via agarose gel electrophoresis. We first prepared a 25 mL solution of 1.0% agarose (Nippon Gene) in TAE (Tris-acetate-EDTA) buffer (Promega, Madison, WI, USA) to produce an agarose gel. An ethidium bromide solution (0.5 μL of 10 mg/mL) (Promega) was added before gelation. After incubation with EcoRI, the fluorescence intensity of the band of the excised OR23 fragment was measured via an ImageQuant LAS4000 (GE Healthcare Japan, Tokyo, Japan) with the following conditions: “Exposure Type”: Precision; “Exposure Time”: Manual 1/8 sec; “Sensitivity/Resolution”: Standard; and “Fluorescent Method”: Epi illumination; EtBr; UV (Trans UV) light; 6-5DF50 Filter; and F2.8 Iris.
For statistical analyses, Student’s t-test (unpaired and bi-sided), Dunnett’s test, and Pearson correlation analysis were performed via Microsoft Excel (Office 365) and JSTAT (Yokohama, Japan). The Dunnett’s test was performed for each experimental group that was examined simultaneously in the laboratory, in comparison to the “no peptide” control group that was examined simultaneously. The repeated measure mode of the Dunnett’s test was used on the assumption that there was no interaction between samples.

Entries after “also recorded” stand apart in the source; their conditions may differ.

T1 sequence (P00642 2-277): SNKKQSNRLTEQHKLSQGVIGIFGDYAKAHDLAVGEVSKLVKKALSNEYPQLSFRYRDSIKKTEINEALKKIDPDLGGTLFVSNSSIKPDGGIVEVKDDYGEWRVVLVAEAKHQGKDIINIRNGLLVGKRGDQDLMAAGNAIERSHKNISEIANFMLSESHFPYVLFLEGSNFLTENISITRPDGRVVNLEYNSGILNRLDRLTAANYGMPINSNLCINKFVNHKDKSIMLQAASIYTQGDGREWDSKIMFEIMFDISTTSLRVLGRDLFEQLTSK

Consider “PINSNL [BP19.5N, deletion peptide from BP19.5]”, for which the “plasmid DNA degradation / nonspecific nuclease induction (agarose gel electrophoresis, in words)” value at EcoRI [1] is given as “no DNA was detected; also recorded: induced such nuclease activity”.

For the substance AANYGMPINSNL [BP19], the “level of inhibitory effect on EcoRI (in words)” value on EcoRI [2] is on record as “did not show high inhibition”. On EcoRI [1], the “plasmid DNA degradation / nonspecific nuclease induction (agarose gel electrophoresis, in words)” value was “did not have such an induction ability”.

NLCINKFVNHKDK [BP20]: the “level of inhibitory effect on EcoRI (in words)” value at EcoRI [2] is “especially notable; also recorded: strong inhibitory effect; also recorded: most effective”. Further, on EcoRI [2] (relative to no peptide, EcoRI:peptide 1:500 molar ratio, 37 °C, 0.015 mM Mg2+, mean of n = 3), the “relative fluorescence intensity of excised OR23 fragment” value is reported as “less than 0.3”. Besides, at EcoRI [1], the “plasmid DNA degradation / nonspecific nuclease induction (agarose gel electrophoresis, in words)” value is listed as “does not induce nuclease activity”.

For the substance PINSNLCINK [BP19.5], on EcoRI [1], the “plasmid DNA degradation / nonspecific nuclease induction (agarose gel electrophoresis, in words)” value is on record as “no DNA fragment or plasmid DNA was detected”. In addition, the “DNA concentration at 3 h in the reaction mixture” value at EcoRI [1] (no peptide 3.297 ± 0.006) worked out at 0.332 ± 0.003 ng/µL.

Turning to “NLCINK [BP19.5C, deletion peptide from BP19.5]”, the “plasmid DNA degradation / nonspecific nuclease induction (agarose gel electrophoresis, in words)” value at EcoRI [1] was “no DNA was detected; also recorded: induced such nuclease activity”.
